Data taken from patent publication US20140343000A1 (priority 2011, published 2014).
Where a name gives a salt, the structure may show the parent alone.

test system: recombinant NL4-3 virus (Renilla luciferase in nef, Gag P373S; NLRluc) in MT-2 cells; assay: whole plant or invertebrate; type: cell-based, HIV; details: Renilla, NL43, luciferase activity in cells infected for 4-5 days with NLRluc recombinants, serial dilutions of inhibitor; class symbols (key in Table 1); read-out: EC50
Experimental: MT-2 cells and 293T cells were obtained from the NIH AIDS Research and Reference Reagent Program. MT-2 cells were propagated in RPMI 1640 media supplemented with 10% heat inactivated fetal bovine serum, […]. The 293T cells were propagated in DMEM media supplemented with 10% heat inactivated fetal bovine serum (FBS), 100 units/ml penicillin G and 100 μg/ml streptomycin. The proviral DNA clone of NL4-3 was obtained from the NIH AIDS Research and Reference Reagent Program. A recombinant NL4-3 virus, in which a section of the nef gene from NL4-3 was replaced with the Renilla luciferase gene, was used as a reference virus. In addition, residue Gag P373 was converted to P373S. Briefly, the recombinant virus was prepared by transfection of the altered proviral clone of NL4-3. Transfections were performed in 293T cells using LipofectAMINE PLUS from Invitrogen (Carlsbad, Calif.), according to manufacturer's instruction. The virus was titered in MT-2 cells using luciferase enzyme activity as a marker. Luciferase was quantitated using the Dual Luciferase kit from Promega (Madison, Wis.), with modifications to the manufacturer's protocol. The diluted Passive Lysis solution was pre-mixed with the re-suspended Luciferase Assay Reagent and the re-suspended Stop & Glo Substrate (2:1:1 ratio). Fifty (50) μL of the mixture was added to each aspirated well on assay plates and luciferase activity was measured immediately on a Wallac TriLux (Perkin-Elmer). Antiviral activities of inhibitors toward the recombinant virus were quantified by measuring luciferase activity in cells infected for 4-5 days with NLRluc recombinants in the presence serial dilutions of the inhibitor. Table 1 is the key for the data in Table 2.

Compared with `C=C(C)[C@@H]1CC[C@]2(NCC3CCCN(C(=O)OC(C)(C)C)C3)CC[C@]3(C)[C@H](CC[C@@H]4[C@@]5(C)CC=C(c6ccc(C(=O)O)cc6)C(C)(C)[C@@H]5CC[C@]43C)[C@@H]12` (stereo partly drawn) [Example 153, 4-((1R,3aS,5aR,5bR,7aR,11aS,11bR,13aR,13bR)-3a-((1-(tert-butoxycarbonyl)piperidin-3-yl)methylamino)-5a,5b,8,8,11a-pentamethyl-1-(prop-1-en-2-yl)-2,3,3a,4,5,5a,5b,6,7,7a,8,11,11a,11b,12,13,13a,13b-octadecahydro-1H-cyclopenta[a]chrysen-9-yl)benzoic acid], `C=C(C)[C@@H]1CC[C@]2(NCCN3CCN(C(=O)OC(C)(C)C)CC3)CC[C@]3(C)[C@H](CC[C@@H]4[C@@]5(C)CC=C(c6ccc(C(=O)O)cc6)C(C)(C)[C@@H]5CC[C@]43C)[C@@H]12` [Example B13, 4-((1R,3aS,5aR,5bR,7aR,11aS,11bR,13aR,13bR)-3a-((2-(4-(tert-butoxycarbonyl)piperazin-1-yl)ethyl)amino)-5a,5b,8,8,11a-pentamethyl-1-(prop-1-en-2-yl)-2,3,3a,4,5,5a,5b,6,7,7a,8,11,11a,11b,12,13,13a,13b-octadecahydro-1H-cyclopenta[a]chrysen-9-yl)benzoic acid] is lower in EC50: > 100 nM for the first, < 100 nM for the second. The second is the more potent here.

`C=C(C)[C@@H]1CC[C@]2(NCCN3CCN(S(=O)(=O)CC(C)C)CC3)CC[C@]3(C)[C@H](CC[C@@H]4[C@@]5(C)CC=C(c6ccc(C(=O)O)cc6)C(C)(C)[C@@H]5CC[C@]43C)[C@@H]12` [Example B35, 4-((1R,3aS,5aR,5bR,7aR,11aS,11bR,13aR,13bR)-3a-((2-(4-(isobutylsulfonyl)piperazin-1-yl)ethyl)amino)-5a,5b,8,8,11a-pentamethyl-1-(prop-1-en-2-yl)-2,3,3a,4,5,5a,5b,6,7,7a,8,11,11a,11b,12,13,13a,13b-octadecahydro-1H-cyclopenta[a]chrysen-9-yl)benzoic acid] and `C=C(C)[C@@H]1CC[C@]2(NCCF)CC[C@]3(C)[C@H](CC[C@@H]4[C@@]5(C)CC=C(c6ccc(C(=O)O)cc6)C(C)(C)[C@@H]5CC[C@]43C)[C@@H]12` [Example 179, 4-((1R,3aS,5aR,5bR,7aR,11aS,11bR,13aR,13bR)-3a-((2-fluoroethyl)amino)-5a,5b,8,8,11a-pentamethyl-1-(prop-1-en-2-yl)-2,3,3a,4,5,5a,5b,6,7,7a,8,11,11a,11b,12,13,13a,13b-octadecahydro-1H-cyclopenta[a]chrysen-9-yl)benzoic acid] cannot be ordered by EC50: < 100 nM for the first, < 100 nM for the second.

`C=C(C)[C@@H]1CC[C@]2(NCc3ccsc3)CC[C@]3(C)[C@H](CC[C@@H]4[C@@]5(C)CC=C(c6ccc(C(=O)O)cc6)C(C)(C)[C@@H]5CC[C@]43C)[C@@H]12` [Example 158, 4-((1R,3aS,5aR,5bR,7aR,11aS,11bR,13aR,13bR)-5a,5b,8,8,11a-pentamethyl-1-(prop-1-en-2-yl)-3a-(thiophen-3-ylmethylamino)-2,3,3a,4,5,5a,5b,6,7,7a,8,11,11a,11b,12,13,13a,13b-octadecahydro-1H-cyclopenta[a]chrysen-9-yl)benzoic acid] and `C=C(C)[C@@H]1CC[C@]2(NC(=O)CNCCO)CC[C@]3(C)[C@H](CC[C@@H]4[C@@]5(C)CC=C(c6ccc(C(=O)O)cc6)C(C)(C)[C@@H]5CC[C@]43C)[C@@H]12` [Example 106, 4-((1R,3aS,5aR,5bR,7aR,11aS,11bR,13aR,13bR)-3a-(2-(2-hydroxyethylamino)acetamido)-5a,5b,8,8,11a-pentamethyl-1-(prop-1-en-2-yl)-2,3,3a,4,5,5a,5b,6,7,7a,8,11,11a,11b,12,13,13a,13b-octadecahydro-1H-cyclopenta[a]chrysen-9-yl)benzoic acid] cannot be ordered by EC50: < 100 nM for the first, < 100 nM for the second.

`C=C(C)[C@@H]1CC[C@]2(NC(=O)CN3CCCC3=O)CC[C@]3(C)[C@H](CC[C@@H]4[C@@]5(C)CC=C(c6ccc(C(=O)O)cc6)C(C)(C)[C@@H]5CC[C@]43C)[C@@H]12` [Example 95, 4-((1R,3aS,5aR,5bR,7aR,11aS,11bR,13aR,13bR)-5a,5b,8,8,11a-pentamethyl-3a-(2-(2-oxopyrrolidin-1-yl)acetamido)-1-(prop-1-en-2-yl)-2,3,3a,4,5,5a,5b,6,7,7a,8,11,11a,11b,12,13,13a,13b-octadecahydro-1H-cyclopenta[a]chrysen-9-yl)benzoic acid] and `C=C(C)[C@@H]1CC[C@]2(NC(=O)CN3CCCCC3)CC[C@]3(C)[C@H](CC[C@@H]4[C@@]5(C)CC=C(c6ccc(C(=O)O)cc6)C(C)(C)[C@@H]5CC[C@]43C)[C@@H]12` [Example 122, 4-((1R,3aS,5aR,5bR,7aR,11aS,11bR,13aR,13bR)-5a,5b,8,8,11a-pentamethyl-3a-(2-(piperidin-1-yl)acetamido)-1-(prop-1-en-2-yl)-2,3,3a,4,5,5a,5b,6,7,7a,8,11,11a,11b,12,13,13a,13b-octadecahydro-1H-cyclopenta[a]chrysen-9-yl)benzoic acid] cannot be ordered by EC50: < 100 nM for the first, < 100 nM for the second.

`C=C(C)[C@@H]1CC[C@]2(NC(=O)NC3(CN4CCCCC4)CC3)CC[C@]3(C)[C@H](CC[C@@H]4[C@@]5(C)CC=C(c6ccc(C(=O)O)cc6)C(C)(C)[C@@H]5CC[C@]43C)[C@@H]12` [Example 8, 4-((1R,3aS,5aR,5bR,7aR,11aS,11bR,13aR,13bR)-5a,5b,8,8,11a-pentamethyl-3a-(3-(1-(piperidin-1-ylmethyl)cyclopropyl)ureido)-1-(prop-1-en-2-yl)-2,3,3a,4,5,5a,5b,6,7,7a,8,11,11a,11b,12,13,13a,13b-octadecahydro-1H-cyclopenta[a]chrysen-9-yl)benzoic acid] and `C=C(C)[C@@H]1CC[C@]2(NC(=O)CN3C(=O)OC[C@@H]3c3ccccc3)CC[C@]3(C)[C@H](CC[C@@H]4[C@@]5(C)CC=C(c6ccc(C(=O)O)cc6)C(C)(C)[C@@H]5CC[C@]43C)[C@@H]12` [Example 107, 4-((1R,3aS,5aR,5bR,7aR,11aS,11bR,13aR,13bR)-5a,5b,8,8,11a-pentamethyl-3a-(2-((S)-2-oxo-4-phenyloxazolidin-3-yl)acetamido)-1-(prop-1-en-2-yl)-2,3,3a,4,5,5a,5b,6,7,7a,8,11,11a,11b,12,13,13a,13b-octadecahydro-1H-cyclopenta[a]chrysen-9-yl)benzoic acid] cannot be ordered by EC50: < 100 nM for the first, < 100 nM for the second.

For `C=C(C)[C@@H]1CC[C@]2(NCCNc3ccc(S(C)(=O)=O)cn3)CC[C@]3(C)[C@H](CC[C@@H]4[C@@]5(C)CC=C(c6ccc(C(=O)O)cc6)C(C)(C)[C@@H]5CC[C@]43C)[C@@H]12` [Example 201, 4-((1R,3aS,5aR,5bR,7aR,11aS,11bR,13aR,13bR)-5a,5b,8,8,11a-pentamethyl-3a-(2-(5-(methylsulfonyl)pyridin-2-ylamino)ethylamino)-1-(prop-1-en-2-yl)-2,3,3a,4,5,5a,5b,6,7,7a,8,11,11a,11b,12,13,13a,13b-octadecahydro-1H-cyclopenta[a]chrysen-9-yl)benzoic acid], the EC50 was < 100 nM.

same assay, conditions: Renilla, NL43, luciferase activity in cells infected for 4-5 days with NLRluc recombinants, serial dilutions of inhibitor; numeric values; read-out: EC50

In order of rising EC50:
1. C=C(C)[C@@H]1CC[C@]2(N(CCN3CCCC3)CCN3CCCC3)CC[C@]3(C)[C@H](CC[C@@H]4[C@@]5(C)CC=C(c6ccc(C(=O)O)cc6)C(C)(C)[C@@H]5CC[C@]43C)[C@@H]12 [Example 167, 4-((1R,3aS,5aR,5bR,7aR,11aS,11bR,13aR,13bR)-3a-(bis(2-(pyrrolidin-1-yl)ethyl)amino)-5a,5b,8,8,11a-pentamethyl-1-(prop-1-en-2-yl)-2,3,3a,4,5,5a,5b,6,7,7a,8,11,11a,11b,12,13,13a,13b-octadecahydro-1H-cyclopenta[a]chrysen-9-yl)benzoic acid]  4 nM
2. C=C(C)[C@@H]1CC[C@]2(NC(=O)NCCN(C)C)CC[C@]3(C)[C@H](CC[C@@H]4[C@@]5(C)CC=C(c6ccc(C(=O)O)cc6)C(C)(C)[C@@H]5CC[C@]43C)[C@@H]12 [Example 3, 4-((1R,3aS,5aR,5bR,7aR,11aS,11bR,13aR,13bR)-3a-(3-(2-(dimethylamino)ethyl)ureido)-5a,5b,8,8,11a-pentamethyl-1-(prop-1-en-2-yl)-2,3,3a,4,5,5a,5b,6,7,7a,8,11,11a,11b,12,13,13a,13b-octadecahydro-1H-cyclopenta[a]chrysen-9-yl)benzoic acid]  4 nM

same assay, conditions: luciferase activity in cells infected for 4-5 days with NLRluc recombinants, serial dilutions of inhibitor; class symbols (key in Table 1); read-out: EC50

With `C=C(C)[C@@H]1CC[C@]2(NC)CC[C@]3(C)[C@H](CC[C@@H]4[C@@]5(C)CC=C(c6ccc(C(=O)O)cc6)C(C)(C)[C@@H]5CC[C@]43C)[C@@H]12` [Example 176, 4-((1R,3aS,5aR,5bR,7aR,11aS,11bR,13aR,13bR)-5a,5b,8,8,11a-pentamethyl-3a-(methylamino)-1-(prop-1-en-2-yl)-2,3,3a,4,5,5a,5b,6,7,7a,8,11,11a,11b,12,13,13a,13b-octadecahydro-1H-cyclopenta[a]chrysen-9-yl)benzoic acid, HCl] the EC50 was < 100 nM.
